The target in this test is T1, c-fms (Homo sapiens, UniProt P07333).
T1 construct: 3DP
Nature of the test: c-fms autophosphorylation, fluorescence polarization competition immunoassay. Format: biochemical. The conditions noted are these: 10 nM c-fms, 1 mM ATP, 5 mM MgCl2, 2% DMSO; averages of three independent measurements. How it is done: The assay was performed in black 96-well microplates (LJL BioSystems). The assay buffer used was 100 mM HEPES, pH 7.5, 1 mM DTT, 0.01% (v/v) Tween-20. Compounds were diluted in assay buffer containing 4% DMSO just prior to the assay. […] The kinase reaction was initiated by adding 2 μL of 5 mM ATP (Sigma) in assay buffer. The final concentrations in the assay were 10 nM c-fms, 1 mM ATP, 5 mM MgCl2, 2% DMSO. Control reactions were ran in each plate: in positive and negative control wells, assay buffer (made 4% in DMSO) was substituted for the compound; in addition, positive control wells received 1.2 μL of 50 mM EDTA.
The plates were incubated at room temperature for 45 min. At the end of the incubation, the reaction was quenched with 1.2 μL of 50 mM EDTA (EDTA was not added to the positive control wells at this point; see above). Following a 5-min incubation, each well received 10 μL of a 1:1:3 mixture of anti-phosphotyrosine antibody, 10X, PTK green tracer, 10X (vortexed), FP dilution buffer, respectively (all from PanVera, cat. #P2837). The plate was covered, incubated for 30 min at room temperature and the fluorescence polarization was read on the Analyst. The instrument settings were: 485 nm excitation filter; 530 nm emission filter; Z height: middle of well; G factor: 0.93. […] The reported IC50 values are averages of three independent measurements.
A general note: In fluorescence polarisation assays a small probe gives low polarisation when free and higher when bound to something large.

T1 sequence (P07333 20-972): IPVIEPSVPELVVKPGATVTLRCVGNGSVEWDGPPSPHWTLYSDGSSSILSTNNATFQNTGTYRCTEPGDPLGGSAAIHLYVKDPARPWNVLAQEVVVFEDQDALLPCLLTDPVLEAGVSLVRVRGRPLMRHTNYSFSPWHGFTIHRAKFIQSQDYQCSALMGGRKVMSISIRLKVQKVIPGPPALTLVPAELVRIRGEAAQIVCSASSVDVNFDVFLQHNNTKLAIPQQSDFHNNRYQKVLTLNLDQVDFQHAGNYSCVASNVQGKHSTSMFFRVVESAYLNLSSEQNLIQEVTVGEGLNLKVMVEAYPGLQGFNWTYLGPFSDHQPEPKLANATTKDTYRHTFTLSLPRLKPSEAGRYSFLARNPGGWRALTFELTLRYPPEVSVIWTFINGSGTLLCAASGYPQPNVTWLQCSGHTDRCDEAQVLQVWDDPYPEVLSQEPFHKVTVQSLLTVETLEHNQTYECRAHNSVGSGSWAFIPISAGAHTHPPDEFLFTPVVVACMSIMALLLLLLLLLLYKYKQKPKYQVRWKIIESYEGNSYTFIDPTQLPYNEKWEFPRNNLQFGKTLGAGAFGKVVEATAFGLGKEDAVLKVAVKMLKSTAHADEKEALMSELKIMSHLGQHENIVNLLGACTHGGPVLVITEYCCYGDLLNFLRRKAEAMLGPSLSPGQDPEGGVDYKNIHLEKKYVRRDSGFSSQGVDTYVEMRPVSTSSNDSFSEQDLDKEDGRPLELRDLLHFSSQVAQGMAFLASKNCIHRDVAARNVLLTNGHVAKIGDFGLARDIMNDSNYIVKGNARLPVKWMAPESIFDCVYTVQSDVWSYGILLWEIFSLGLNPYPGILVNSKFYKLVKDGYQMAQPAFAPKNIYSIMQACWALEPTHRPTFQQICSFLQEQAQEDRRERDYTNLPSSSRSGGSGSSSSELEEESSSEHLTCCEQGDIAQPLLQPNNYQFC

Turning to `Cc1cc(-c2c(-c3ccccc3)c3cc(C(O)CO)ccc3[nH]c2=O)on1` (stereo not shown), the IC50 was > 10000 nM.

`Cc1cc(-c2c(-c3ccccc3)c3cc(O)ccc3[nH]c2=O)on1` registered an IC50 of 1000 to 10000 nM.

For the molecule `Cc1cc(-c2c(-c3ccccc3)c3cc(Br)ccc3[nH]c2=O)on1`, the IC50 was < 500 nM. The molecule `O=c1[nH]c2ccc(Cl)cc2c(-c2ccccc2)c1-c1nc2ccccc2[nH]1` yielded an IC50 of 1000 to 10000 nM.

As to `Cc1cc(-c2c(-c3cccnc3)c3cc(Cl)ccc3[nH]c2=O)on1`, the IC50 lay in the range of 1000 to 10000 nM. In the case of `Cc1cc(-c2c(-c3ccc4ccccc4c3)c3cc(Cl)ccc3[nH]c2=O)on1` it was 1000 to 10000 nM; in that of `O=C(O)c1cc(-c2c(-c3ccccc3)c3cc(Cl)ccc3[nH]c2=O)on1`, < 500 nM; in that of `O=c1[nH]c2ccc(Cl)cc2c(-c2ccccc2)c1-c1cccnc1`, 1000 to 10000 nM. In the case of `Cc1cc(-c2c(-c3ccccc3)c3ccc(Cl)cc3[nH]c2=O)on1` it was > 10000 nM. Under `O=c1[nH]c2ccc(Cl)cc2c(-c2ccccc2)c1-c1cncc(Br)c1` stands 1000 to 10000 nM. With `Cc1cc(-c2c(-c3ccc(C(C)C)cc3)c3cc(C#N)ccc3[nH]c2=O)on1`, the IC50 was < 500 nM. In the case of `Cc1cc(-c2c(-c3ccc(OC(F)(F)F)cc3)c3cc(C#N)ccc3[nH]c2=O)on1` it was 500 to 1000 nM; in that of `Cc1cc(-c2c(-c3cccs3)c3cc(Cl)ccc3[nH]c2=O)on1`, < 500 nM; in that of `Cc1cc(-c2c(-c3ccccc3F)c3cc(Cl)ccc3[nH]c2=O)on1`, < 500 nM. On to `CCc1ccc(-c2c(-c3cnc[nH]3)c(=O)[nH]c3ccc(C#N)cc23)cc1`, for which the IC50 is < 500 nM. In the case of `CCc1ccc(-c2c(-c3cc(C)no3)c(=O)[nH]c3ccc(C#N)cc23)cc1` it was < 500 nM. Under `Cc1cc(-c2c(-c3cc4ccccc4s3)c3cc(Cl)ccc3[nH]c2=O)on1` stands 500 to 1000 nM. Under `CC(C)(C)c1cc(-c2c(-c3ccccc3)c3cc(Cl)ccc3[nH]c2=O)on1` stands < 500 nM. On to `Cc1cc(-c2c(N3CCCCC3)c3cc(Cl)ccc3[nH]c2=O)on1`, for which the IC50 is < 500 nM. With `CC(C)Cc1coc(-c2c(-c3ccccc3)c3cc(Cl)ccc3[nH]c2=O)n1`, the IC50 is > 10000 nM. In the case of `O=c1[nH]c2ccc(Br)cc2c(-c2ccccc2)c1-c1cnc[nH]1` it was < 500 nM; in that of `Cc1cc(-c2c(-c3ccccc3)c3cccc(Cl)c3[nH]c2=O)on1`, > 10000 nM. With `Cc1cc(-c2c(-c3ccccc3)c3cc(C(=O)O)ccc3[nH]c2=O)on1`, the IC50 lay in the range of 1000 to 10000 nM.

As for `COc1cccc(-c2c(-c3cc(C)no3)c(=O)[nH]c3ccc(Cl)cc23)c1`, the IC50 fell in the range of 500 to 1000 nM. As for `C=Cc1ccc(-c2c(-c3cc(C)no3)c(=O)[nH]c3ccc(C#N)cc23)cc1`, the IC50 is < 500 nM. In the case of `O=c1[nH]c2ccc(Cl)cc2c(-c2ccccc2)c1-c1nnn[nH]1` it was > 10000 nM; in that of `Cc1cc(-c2c(-c3ccccn3)c3cc(Cl)ccc3[nH]c2=O)on1`, 1000 to 10000 nM. In the case of `Cc1cc(-c2c(-c3cccc(O)c3)c3cc(Cl)ccc3[nH]c2=O)on1` it was < 500 nM; in that of `CC(=O)Nc1cc(-c2c(-c3ccccc3)c3cc(Cl)ccc3[nH]c2=O)on1`, 1000 to 10000 nM; in that of `Cc1cc(-c2c(-c3cc4ccccc4o3)c3cc(Cl)ccc3[nH]c2=O)on1`, 1000 to 10000 nM.

As to `CCOC(=O)c1cccc(-c2c(-c3ccccc3)c3cc(Cl)ccc3[nH]c2=O)c1`, the IC50 was > 10000 nM.

Consider `O=c1[nH]c2ccc(Cl)cc2c(-c2ccccc2)c1-c1cn(Cc2ccccc2)nn1`, for which the IC50 lay within 500 to 1000 nM. Under `Cc1cc(-c2c(C3=CCCCCC3)c3cc(C#N)ccc3[nH]c2=O)on1` stands < 500 nM; under `Cc1cc(-c2c(N3CCC(C)(C)CC3)c3cc(Cl)ccc3[nH]c2=O)on1`, 500 to 1000 nM; under `Cc1cc(-c2c(-c3ccccc3)c3cc(CO)ccc3[nH]c2=O)on1`, > 10000 nM. Under `O=c1[nH]c2ccc(Cl)cc2c(-c2ccccc2)c1-c1cc(CCc2ccccc2)no1` stands 1000 to 10000 nM. Under `O=c1[nH]c2ccc(Cl)cc2c(-c2ccccc2)c1-c1ccccn1` stands 1000 to 10000 nM.

Usually IC50 stands for the point on the concentration scale where inhibition reaches its midpoint. Read a high IC50 as weaker potency in that assay.

These data come from US7326788B2, “Quinolinone derivatives as inhibitors of c-fms kinase” (Janssen Pharmaceutica N.V., priority 2003, dated 2008).
